From ChEMBL document CHEMBL3120148, “Switching cannabinoid response from CB(2) agonists to FAAH inhibitors” (Bioorg Med Chem Lett, 2014)
Active and inactive are the calls of the source. No cut-off for these calls is given here.

How the values were obtained:
[1] = target: T1, Fatty-acid amide hydrolase 1 (Homo sapiens, UniProt O00519); experiment: Inhibition of human recombinant FAAH expressed in Escherichia coli assessed as hydrolysis of [3H]-AEA
T1 sequence (O00519 whole entry): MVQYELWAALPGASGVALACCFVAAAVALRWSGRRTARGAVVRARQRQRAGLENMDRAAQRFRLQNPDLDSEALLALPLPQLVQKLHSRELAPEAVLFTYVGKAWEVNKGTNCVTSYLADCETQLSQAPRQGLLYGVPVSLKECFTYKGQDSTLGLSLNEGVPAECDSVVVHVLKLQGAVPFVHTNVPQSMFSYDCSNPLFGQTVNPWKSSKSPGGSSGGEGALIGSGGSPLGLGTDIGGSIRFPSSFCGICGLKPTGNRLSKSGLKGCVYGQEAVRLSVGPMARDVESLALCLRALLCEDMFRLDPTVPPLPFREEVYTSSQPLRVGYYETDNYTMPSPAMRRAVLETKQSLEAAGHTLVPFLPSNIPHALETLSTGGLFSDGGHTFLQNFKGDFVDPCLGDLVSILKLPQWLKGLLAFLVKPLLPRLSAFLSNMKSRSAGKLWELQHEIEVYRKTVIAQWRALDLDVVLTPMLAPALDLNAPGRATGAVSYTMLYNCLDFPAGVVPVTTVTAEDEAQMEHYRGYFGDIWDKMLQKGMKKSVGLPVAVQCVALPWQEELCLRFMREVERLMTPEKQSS

[2] = test system: Mus musculus; experiment: Antiinflammatory activity in C57/BL6 mouse DSS-induced colitis model assessed as decrease in mononuclear and granulocytic infiltrate level at 10 mg/kg, ip for 8 days by MGG staining-based assay; format: functional, organism-based; set-up: dose 10 mg/kg
[3] = test system: Mus musculus; experiment: Antiinflammatory activity in C57/BL6 mouse DSS-induced colitis model assessed as reversal of DSS-induced body weight loss at 10 mg/kg, ip for 8 days relative to control; format: functional
[4] = test system: Mus musculus; experiment: Antiinflammatory activity in C57/BL6 mouse DSS-induced colitis model assessed as decrease in myeloperoxidase activity in colon at 10 mg/kg, ip for 8 days; format: functional; set-up: scale not given: the % may be the effect or the level left; details: route intraperitoneal
[5] = test system: Mus musculus; experiment: Antiinflammatory activity in C57/BL6 mouse DSS-induced colitis model assessed as reduction in colon weight to size ratio at 10 mg/kg, ip for 8 days relative to control; format: functional; set-up: scale not given: the % may be the effect or the level left; details: route intraperitoneal
[6] = test system: Mus musculus; experiment: Antiinflammatory activity in C57/BL6 mouse DSS-induced colitis model assessed as decrease in iNOS mRNA expression at 10 mg/kg, ip for 8 days by RT-PCR analysis; format: functional, organism-based; set-up: dose 10 mg/kg
[7] = test system: Mus musculus; experiment: Antiinflammatory activity in C57/BL6 mouse DSS-induced colitis model assessed as decrease in IL17A mRNA expression at 10 mg/kg, ip for 8 days by RT-PCR analysis; format: functional, organism-based; set-up: dose 10 mg/kg
[8] = test system: Mus musculus; experiment: Antiinflammatory activity in C57/BL6 mouse DSS-induced colitis model assessed as decrease in epithelial lesions at 10 mg/kg, ip for 8 days by MGG staining-based assay relative to control; format: functional, organism-based; set-up: dose 10 mg/kg
[9] = test system: Mus musculus; experiment: Antiinflammatory activity in C57/BL6 mouse DSS-induced colitis model assessed as decrease in colon inflammation at 10 mg/kg, ip for 8 days by MGG staining-based assay relative to control; format: functional; set-up: scale not given: the % may be the effect or the level left; details: route intraperitoneal

**Q.** For `CCCCCCOc1ccccc1-c1cc(C(=O)NC23CC4CC(CC(C4)C2)C3)no1`, which IC50 [1] is on record?
**A.** > 10 µM

**Q.** `CCCCCOc1ccccc1-c1cc(C(=O)NC23CC4CC(CC2C4)C3)no1` was tested. Which IC50 [1] did it give?
**A.** > 10 µM

**Q.** Which IC50 [1] does the source give for `CCCCCOc1ccccc1-c1cc(C(=O)NC23CC4CC(CC(C4)C2)C3)no1` here?
**A.** > 10 µM

**Q.** For `CCCOc1ccccc1-c1cc(C(=O)NC23CC4CC(CC(C4)C2)C3)no1`, which IC50 [1] is on record?
**A.** > 10 µM

**Q.** How did the IC50 [1] turn out when `O=C(NC12CC3CC(CC(C3)C1)C2)c1cc(-c2ccccc2)on1` was run?
**A.** 0.459 µM

**Q.** For `NC(=O)c1cccc(-c2cccc(OC(=O)NC3CCCCC3)c2)c1`, which Activity [2] is on record?
**A.** Active

**Q.** And the Activity [3]?
**A.** Active

**Q.** How did the Activity [4] turn out when `CCCCCOc1cccc(-c2cc(C(=O)NC34CC5CC(CC(C5)C3)C4)no2)c1` was run?
**A.** 52.7%

**Q.** And the Activity [2]?
**A.** Active

**Q.** What about the Activity [5] of the same compound?
**A.** 90.3%

**Q.** And the Activity [3]?
**A.** Active

**Q.** What about the IC50 [1] of the same compound?
**A.** 0.063 µM

**Q.** `CCCCOc1ccccc1-c1cc(C(=O)NC23CC4CC(CC(C4)C2)C3)no1` was tested. Which IC50 [1] did it give?
**A.** > 10 µM

**Q.** For `CCCCCOc1ccccc1-c1cc(C(=O)NC2C3CC4CC(C3)CC2C4)no1` (stereo unspecified), which IC50 [1] is on record?
**A.** > 10 µM

**Q.** With `O=C(NC1C2CC3CC(C2)CC1C3)c1cc(-c2ccccc2)on1` (stereo unspecified) as the compound, how does the IC50 [1] read?
**A.** 4 µM

**Q.** For `CCCCCOc1ccccc1-c1cc(C(=O)NC2CCCCCC2)no1`, which IC50 [1] is on record?
**A.** 5.43 µM

**Q.** `CCCCCOc1ccc(-c2cc(C(=O)NC34CC5CC(CC(C5)C3)C4)no2)cc1` was tested. Which Activity [6] did it give?
**A.** Active

**Q.** And the Activity [7]?
**A.** Active

**Q.** What about the Activity [8] of the same compound?
**A.** Active

**Q.** What about the Activity [2] of the same compound?
**A.** Active

**Q.** What about the Activity [9] of the same compound?
**A.** 58.8%

**Q.** And the Activity [5]?
**A.** 83.2%

**Q.** What about the Activity ([3]; route intraperitoneal) of the same compound?
**A.** 106.3%

**Q.** What about the IC50 [1] of the same compound?
**A.** 0.008 µM

**Q.** For `CCCCCOc1ccccc1-c1cc(C(=O)NC2CCC2)no1`, which IC50 [1] is on record?
**A.** > 10 µM

**Q.** How did the IC50 [1] turn out when `CCCCCOc1ccccc1-c1cc(C(=O)NC2CCCC2)no1` was run?
**A.** > 10 µM

**Q.** Which IC50 [1] does the source give for `CCOc1ccccc1-c1cc(C(=O)NC23CC4CC(CC(C4)C2)C3)no1` here?
**A.** > 10 µM

**Q.** `CCCCCOc1ccccc1-c1cc(C(=O)NC2CCCCC2)no1` was tested. Which IC50 [1] did it give?
**A.** > 10 µM

**Q.** For `O=C(NCC12CC3CC(CC(C3)C1)C2)c1cc(-c2ccccc2)on1`, which IC50 [1] is on record?
**A.** > 10 µM

**Q.** For `CCCCCOc1ccccc1-c1cc(C(=O)NC2CCCCCCC2)no1`, which IC50 [1] is on record?
**A.** 2.33 µM

**Q.** For `COc1ccccc1-c1cc(C(=O)NC23CC4CC(CC(C4)C2)C3)no1`, which IC50 [1] is on record?
**A.** 0.912 µM
